The results in this text go back to article PMC12691742, “Anti-Cancer Outcome of Glucocorticoid Receptor Transrepression by Synephrine Derivatives in Hematological Malignancies” (International Journal of Molecular Sciences, 2025).

Data set [1] relates to NF-kB activity in Granta cells. Briefly: NF-kB.Luc reporter assay in Granta cells. The format is cell-based. Particulars: 5 h, 10S-E2 1 µM. As to the method: We analyzed GR TR function using an NF-kB.Luc reporter assay with the irritating inflammatory agent phorbol 13-acetate 12-myristate (TPA) as an inducer of NF-kB signaling and positive control.
Figure 4 Effects of synephrine derivatives on GR transrepression in Granta lymphoma and K562 leukemia cells. (A) K562 and Granta cells stably infected with the lentiviruses bearing the NF-kB luciferase reporter. Cells were incubated for 5 h with the solvent (control), TPA (5 ng/mL), 4S-C2 (10 µM), 8S-E3 (10 µM), 10S-E2 (1 µM), or 13S-G2 (1 µM). Luciferase activity was determined as described in the Materials and Methods section. (B) IL1-α and IL6 mRNA expression in K562 and Granta cells. Q-PCR results were normalized to the expression of the housekeeping gene RPL27 and are presented as the fold change compared to the control. The mean ± SD was calculated for three individual samples/condition (n = 3). Statistically significant differences compared to the control: * p < 0.05, ** p < 0.01.
Lentiviral stocks were generated using the lentiviral expression vector NF-kB. Luc was encoded with Firefly Luciferase reporters with the NF-kB-responsive promoter of minimal CMV promoter as a control (“System Bioscience”, Moutain View, CA, USA), along with packing plasmids GAG, REV, and VSVg. HEK-293T cells were transfected with the abovementioned plasmids using TurboFect reagent (“Thermo Scientific”, Waltham, MA, USA) according to the manufacturer’s protocol. […] The infection efficiency exceeded 90% (tracked by GFP fluorescence).
Cells (10^4 cells/well in a 24-well plate), stably expressing Firefly Luciferase under the NF-kB promoter, were treated for 5 h with TPA (12-O-tetradecanoylphorbol-13-acetate, Boston, MA, USA, 10 ng/mL), 4S-C2 (10 µM), 8S-E3 (10 µM), 10S-E2 (1 µM), 13S-G2 (1 µM), or the vehicle. Luciferase activity was measured as described using a commercial Luciferase Assay (“Promega”, Madison, WI, USA) and Luminometer TD 20/20 (“Turner Design Instruments”, San Jose, CA, USA). […]
(In a reporter assay the amount or activity of a reporter protein is the signal.)

The target in the next data set is T1, GR (Homo sapiens, UniProt P04150).
T1 construct: endogenous in cells; host or cells: K562
T1 sequence (P04150 1-777): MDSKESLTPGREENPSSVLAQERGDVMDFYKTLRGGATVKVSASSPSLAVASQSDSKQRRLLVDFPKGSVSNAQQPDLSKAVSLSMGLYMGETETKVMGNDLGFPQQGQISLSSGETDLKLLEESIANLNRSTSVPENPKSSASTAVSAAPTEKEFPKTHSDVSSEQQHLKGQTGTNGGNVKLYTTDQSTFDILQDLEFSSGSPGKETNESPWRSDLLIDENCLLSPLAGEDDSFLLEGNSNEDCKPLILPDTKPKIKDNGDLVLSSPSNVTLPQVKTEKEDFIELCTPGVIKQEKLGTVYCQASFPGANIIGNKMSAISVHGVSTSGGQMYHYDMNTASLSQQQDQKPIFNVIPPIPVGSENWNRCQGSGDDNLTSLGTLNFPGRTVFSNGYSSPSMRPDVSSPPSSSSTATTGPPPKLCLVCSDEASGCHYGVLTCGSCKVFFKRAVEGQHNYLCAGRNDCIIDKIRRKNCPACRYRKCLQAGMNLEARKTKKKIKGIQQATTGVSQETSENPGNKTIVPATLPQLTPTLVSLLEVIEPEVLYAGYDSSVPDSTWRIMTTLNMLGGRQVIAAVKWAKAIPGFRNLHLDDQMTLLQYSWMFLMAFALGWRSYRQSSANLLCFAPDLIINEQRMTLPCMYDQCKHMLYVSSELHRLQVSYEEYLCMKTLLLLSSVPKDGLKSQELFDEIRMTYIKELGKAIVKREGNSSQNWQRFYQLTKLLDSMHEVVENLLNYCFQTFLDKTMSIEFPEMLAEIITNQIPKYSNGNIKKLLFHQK
Briefly: GR radioligand binding assay, competition with [3H]Dex in K562 cells. As to the method: (A,B). […] The stability of the complex was simulated using molecular dynamics in the GROMACS program. (C) GR binding affinity was estimated using a radioligand binding assay. […] Cell lysate radioactivity was measured using a RackBeta 1215 LC (LKB Wallac, Turku, Finland) spectrometer for 4 min. […] The experiments were performed in triplicate (n = 3).
After 90 min of incubation, the cells were washed twice by centrifugation in cold serum-free medium (1500 rpm, 5 min). The cells were then lysed with RIPA buffer (50 mM Tris (pH 8.0), 150 mM NaCl, 1 mM ethylenediaminetetraacetic acid, 0.1% sodium dodecyl sulfate, 0.5% sodium deoxycholate, 1% triton-X100, 10% glycerin, and protease inhibitor) for 20 min. Lysates were transferred to scintillation liquid, and radioactivity was measured using a RackBeta 1215 LC spectrometer for 4 min. […] IC50 was determined using GraphPad Prism software, Ver.7.0. […] “Top” meant the highest value in dpm and was equal to 100%, while the “bottom” was considered as the lowest value (0%). […] The IC50 values for each ligand were determined by plotting these curves. The experiments were performed in triplicate.

The subject of another data set is P388 murine lymphoma. Briefly: Transplantable P388 murine lymphoma model. Type of data set: in vivo, mice. Particulars: P388 model; Dex 1 mg/kg, 10S-E2 10 mg/kg i.p. 3 times per week. As to the method:
Figure 5 Pro-apoptotic and anti-cancer effects of synephrine derivatives in vitro and in vivo. (A) Effect of 4S-C2, 8S-E3, 10S-E2, and 13S-G2 on cell cycle progression in K562 and Granta cells after 24 h of incubation. The cells were fixed with ethanol, stained with propidium iodide, and analyzed using flow cytometry. Statistically significant difference compared to control: *—p < 0.05, **—p < 0.01 (n = 3). (B) In vivo anti-cancer activity was evaluated using the transplantable P388 murine lymphoma model. […] Tumor nodule size was measured twice a week using digital calipers. Statistically significant differences compared to the control: * p < 0.05, ** p < 0.01.
The protocol for the experiment was approved by the local N.N. Blokhin National Medical Research Center Ethics Committee and corresponded to the guidelines for the welfare and use of animals in cancer research adopted by The United Kingdom Coordinating Committee on Cancer Prevention Research. P388 cells were injected i.p. into 5-week-old female DBA/2 mice (“Stolbovaya Farm”, Stolbovaya, Russia). After 15 days, the cells were collected from the peritoneum, washed, and resuspended in PBS. For the experiments, 0.1 mL containing 2 million cells obtained from the ascites was inoculated s.c. in 5-week-old female BDF1 mice (“Stolbovaya Farm”, Stolbovaya, Russia). […] Body weight was recorded twice a week for toxicity determination. Tumor size was measured three times per week using digital calipers.

pIC50: −log10 of the molar value.

For orientation: pIC50 means the negative decadic logarithm of the IC50, by convention in mol/L. As for `CCCCCCNCC(O)c1ccc(OCc2ccccc2)cc1` (stereo not drawn) [10S-E2, 1-[4-(benzyloxy)phenyl]-2-(hexylamino)ethanol], the “effect on NF-kB activity” value in data set [1] (4S-C2 10 µM) is reported as “not statistically significant”. The “inhibition of luciferase activity (NF-kB)” value in data set [1] stood at 15%. For the same compound, the pIC50 on GR is 6.25. Moreover, the “animal body weight change vs control” value in the data set on P388 murine lymphoma is on record as “no statisticall y si gnificant differences”.
